The subject of data set [1] is lambs with acute pulmonary hypertension. Conditions: cited from earlier work; for pulmonary vasodilation / transpulmonary cGMP release / effect on mean arterial pressure / systemic arterial oxygenation: inhaled microparticles; for pulmonary vasodilation / transpulmonary cGMP release: U-46619-induced pulmonary hypertension; for effect on pulmonary vasodilation induced by iNO: BAY 41-8543 inhaled microparticles, ODQ intravenous.

Data set [2] deals with adult patients with sickle cell disease. Conditions: acute VOE, vs placebo; cited from earlier work.
In the next data set the test system is NO-deficient rats. Conditions: cited from earlier work.
Data set [3] deals with T1, human recombinant soluble guanylate cyclase enzyme α1β1 (Homo sapiens, UniProt Q02108+Q02153).
T1 construct: purchased Enzo Life Sciences ALX-201-177
T1 sequence (Q02108 1-690): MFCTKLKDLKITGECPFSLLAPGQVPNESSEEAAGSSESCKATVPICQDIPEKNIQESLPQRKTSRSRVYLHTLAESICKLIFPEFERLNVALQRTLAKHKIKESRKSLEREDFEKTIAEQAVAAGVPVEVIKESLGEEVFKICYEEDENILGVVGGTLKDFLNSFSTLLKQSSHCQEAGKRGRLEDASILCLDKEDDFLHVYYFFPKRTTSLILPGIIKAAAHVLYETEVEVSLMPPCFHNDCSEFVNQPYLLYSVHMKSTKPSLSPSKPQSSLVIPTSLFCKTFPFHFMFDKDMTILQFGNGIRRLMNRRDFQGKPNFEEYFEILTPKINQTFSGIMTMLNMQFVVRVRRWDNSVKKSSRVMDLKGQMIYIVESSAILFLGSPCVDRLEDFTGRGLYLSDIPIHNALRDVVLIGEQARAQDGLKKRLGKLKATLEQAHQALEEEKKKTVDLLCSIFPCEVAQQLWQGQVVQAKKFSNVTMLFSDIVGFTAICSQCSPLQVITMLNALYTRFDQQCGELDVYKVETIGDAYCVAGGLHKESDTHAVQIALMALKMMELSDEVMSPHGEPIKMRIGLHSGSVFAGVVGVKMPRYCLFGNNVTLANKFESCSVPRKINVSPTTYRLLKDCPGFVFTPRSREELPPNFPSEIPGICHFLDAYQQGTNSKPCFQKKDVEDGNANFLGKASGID
T1 sequence (Q02153 1-619): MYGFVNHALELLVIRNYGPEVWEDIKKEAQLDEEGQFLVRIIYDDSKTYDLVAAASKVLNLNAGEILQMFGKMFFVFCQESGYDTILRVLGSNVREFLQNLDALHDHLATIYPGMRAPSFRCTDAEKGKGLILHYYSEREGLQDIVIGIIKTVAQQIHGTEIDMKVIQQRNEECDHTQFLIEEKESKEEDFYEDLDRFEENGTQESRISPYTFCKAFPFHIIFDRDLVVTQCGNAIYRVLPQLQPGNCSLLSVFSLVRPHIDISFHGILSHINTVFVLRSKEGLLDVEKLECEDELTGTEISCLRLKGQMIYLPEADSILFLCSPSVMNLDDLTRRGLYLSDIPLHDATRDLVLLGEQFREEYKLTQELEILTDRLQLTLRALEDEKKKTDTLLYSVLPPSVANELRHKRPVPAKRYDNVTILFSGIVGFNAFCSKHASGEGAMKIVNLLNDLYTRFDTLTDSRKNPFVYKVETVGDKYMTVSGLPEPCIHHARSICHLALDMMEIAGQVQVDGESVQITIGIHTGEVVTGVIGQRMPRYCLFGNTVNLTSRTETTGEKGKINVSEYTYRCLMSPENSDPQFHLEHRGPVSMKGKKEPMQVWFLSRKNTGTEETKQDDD
Briefly: Purified human recombinant sGC α1β1 enzyme assay in the presence of DETA-NONOate (cGMP HTRF). It counts as biochemical. As to conditions: 30 uM DETA NONOate; 50% of maximal response of 30 uM Compound Y; read-out: sGC_Enz_HTRF_a1b1 EC50/IC50 Abs (Norm) (nM) Binned. On the procedure:
Purified human recombinant soluble guanylate cyclase enzyme α1β1(h sGC) obtained from Enzo Life Sciences (P/N: ALX-201-177) was used to evaluate the activity of test compounds. The assay reactions contained 0.1 M Tris (pH 8.0), 0.5 mg/mL BSA, 2 mM DTT, 4 mM MgCl2, 30 uM DETA NONOate (Enzo Life Science P/N: ALX-430-014), and 12.5 ng/ml human soluble guanylate cyclase enzyme. […] Guanosine 5′-triphosphate (Sigma-Aldrich P/N: G8877) was added to a final concentration of 300 μM and enzyme reactions were incubated (100 μL, 384-well plate format) at 37° C. for 20 minutes. The controls contained 3% DMSO (low control), or 30 uM of Compound Y (high control). After the 20 minute incubation, the reaction was stopped with the addition of 100 μL of ice cold 20% acetic acid.
cGMP concentrations in all samples were determined using the cGMP HTRF (Cisbio P/N: 62GM2PEC) assay per manufacturer's instructions. A cGMP standard curve was fit using a 4-parameter fit (log(inhibitor) vs. response—variable slope) using GraphPad Prism Software v.6. Samples were diluted appropriately to ensure that values fell within the linear range of the standard curve.
Data were fit using a 4-parameter fit (log(agonist) vs. response—variable slope) using GraphPad Prism Software v.6.
Background: Time-resolved FRET reads energy transfer from a long-lived donor to a nearby acceptor.

A further data set has as its system obese mice. As to conditions: cited from earlier work.
Another data set has as its system sickle mice. Conditions: oral, high doses; cited from earlier work.
Data set [4] deals with adult sickle cell disease patients. Conditions: infusions; cited from earlier work.
For a further data set, the system named is mdx mouse. As to conditions: cited from earlier work.
Data set [5] has as its system sickle cell disease patients. Conditions: cited from earlier work.
Data set [6] relates to Guinea pig tracheal smooth muscle. Kind of data set: Electrical field stimulated guinea pig tracheal smooth muscle (ex vivo) bronchodilation model. As to conditions: inhibition of EFS-induced baseline contraction; 95% Cl, 0.78-0.94. On the procedure:
It is possible to assess the bronchodilating effects of sGC stimulators by using the system described below. […]
On each experimental day, a guinea pig is killed by exposure to a rising concentration of CO2 and the trachea removed. […] Tissues are washed with Kreb's buffer and stimulated using the previously determined sub-maximal voltage for 1 hour to establish a stable baseline contraction prior to assessment of compound activity.
A cumulative dose response curve (DRC) to each test substance is then performed and changes in smooth muscle contraction measured. The effect of each test substance in each experiment is expressed as a percentage inhibition of the baseline contraction, normalized to the relevant vehicle controls. […] The data from all three experiments are pooled, the DRC plotted, and the test substance potency and efficacy determined.

Results on 15 compounds are retold here after patent US10047095B2, “sGC stimulators” (IRONWOOD PHARMACEUTICALS, INC., priority 2014, dated 2018).

Broadly, the IC50 is the concentration that inhibits the measured activity by half. Low readings indicate greater potency, high ones weaker potency.

With `Nc1nc(-c2nn(Cc3ccccc3F)c3ncccc23)ncc1C1CC1` [BAY 41-2272], in data set [1], the pulmonary vasodilation result is reported as “dose dependent pulmonary vasodilation”, the “transpulmonary cGMP release” value was “increased” and the “effect on mean arterial pressure” value is recorded as “without significant effect”.
As for nitric oxide [inhaled NO], the pain scores entry in data set [2] is “significantly reduced”.
With `O=c1onc2cnc3ccccc3n12` [ODQ, 1H-[1,2,4]oxadiazolo[4,3-a]quinoxalin-1-one], the “effect on pulmonary vasodilation induced by iNO” value in data set [1] is listed as “markedly reduced”.
In the case of `O=C(O)CCCCN(CCc1ccccc1OCc1ccc(CCc2ccccc2)cc1)Cc1ccc(C(=O)O)cc1` [BAY 58-2667], the “pulmonary vasodilation and transpulmonary cGMP release after treatment with ODQ” value in [1] (inhaled microparticles after ODQ) is “greatly enhanced”. In data set [1], the pulmonary vasodilation entry is recorded as “dose dependent pulmonary vasodilation”, the “transpulmonary cGMP release” value is recorded as “increased”, the “effect on mean arterial pressure” value is “without significant effect” and the systemic arterial oxygenation result is given as “increased”.
On to `Nc1nc(-c2nn(Cc3ccccc3F)c3ncccc23)ncc1C1CC1` [BAY-2272], for which, in the data set with NO-deficient rats, the bladder dysfunction entry is reported as “protective effects”.
Turning to `Nc1nc(-c2nn(Cc3ccccc3F)c3ncccc23)nc(N)c1N1CCOCC1` [BAY 41-8543], in data set [1], the “effect on pulmonary vasodilation induced by iNO” value was “augmented”, the pulmonary vasodilation entry is “dose dependent pulmonary vasodilation”, the “transpulmonary cGMP release” value is listed as “increased” and the “effect on mean arterial pressure” value is “without significant effect”. In data set [1], the systemic arterial oxygenation result is “increased”.
On to `CC(=O)c1cc(-c2ncc(F)c(N3CCc4[nH][nH]c(=O)c4C3)n2)nn1Cc1ccccc1F` [Compound I-16], for which the EC50 in [3] was in the range of 1000 to 5000 nM.
As for `O=C(O)CCCCN(CCc1cc(F)ccc1OCc1ccc(-c2ccc(C(F)(F)F)cc2)cc1)Cc1ccc(C(=O)O)cc1` [BAY 60-2770], the overactive bladder entry with obese mice is reported as “ameliorates overactive bladder”.
As to `COc1cc(-c2ncc(F)c(N3CCn4c(n[nH]c4=O)C3)n2)nn1Cc1ccccc1F` [Compound I-2], the EC50 in [3] lay within 1000 to 5000 nM.
On to `N=C(N)NCCC[C@H](N)C(=O)O` [L-arginine], for which, in the data set with sickle mice, the “Gardos channel activity, dense cell formation and hemolysis” value is on record as “decrease”.
As to `O=NO` [sodium nitrite], the forearm blood flow result in data set [4] is recorded as “enhanced”.
`CCCc1nn(C)c2c(=O)[nH]c(-c3cc(S(=O)(=O)N4CCN(C)CC4)ccc3OCC)nc12` [sildenafil]: the “muscle ischemia, injury and fatigue after a brief bout of exercise” value in the data set on mdx mouse is reported as “alleviate muscle ischemia”. Also, in [5] (Walk-PHaSST multicenter trial, stopped prematurely), the “serious side effects (VOE, headache, visual disturbance)” value was “higher frequency of serious side effects”. The “PAP and exercise capacity” value in data set [5] (sickle cell disease patients with severe PHT) was “improvements”.
In [6], `CC(C)[N+]1(C)[C@@H]2CC[C@H]1CC(OC(=O)C(CO)c1ccccc1)C2` (stereo partly drawn) [Ipratropium bromide] had an IC50 of 0.86 nM.
Turning to `CC(=O)c1cc(-c2ncc(F)c(N3CCn4c(n[nH]c4=O)C3)n2)nn1Cc1ccccc1F` [Compound I-14], the EC50 in [3] was 1000 to 5000 nM.
On the same count and under the same terms, to `COc1cc(-c2ncc(F)c(N3CCc4cn[nH]c4C3)n2)nn1Cc1ccccc1F` [Compound I-6] belongs 1000 to 5000 nM.
